{"source": "patent US4068070A", "about": "“α-Cyanoamine compounds and a process for producing the same” (Fuji Chemical Industry Co., Ltd., priority 1974, dated 1978)", "assay_type_in_all_cases": "in vivo, mongrel adult dogs", "key": {"[1]": {"tested_on": "coronary sinus oxygen tension", "test": "Effects on coronary sinus oxygen tension", "description": "(§1) All experiments were made on male and female thoractomized mongrel adult dogs weighing about 10 kg. under anesthesia with pentobarbital sodium. Compounds A, D, E and F were suspended in 0.2% CMC solution, Compound B dissolved in hydrochloric acid solution (pH 6), and Compound C and active placebo being dissolved in physiological saline solution. Animals were administered the drug intravenously on brachiuma with either test compound or active placebo.\n(§2) Arterial blood pressure was measured by pressure transducer (Nippon Koden MPU-0.5) connected with the cannula inserted from exposed carotid artery into aorta. Aortic blood flow was determined by means of electromagnetic flow meter (Nippon Koden MF-5) mounted at the origin of the aorta. Coronary sinus out flow and coronary sinus oxygen tension were assessed by means of electromagnetic flow meter (Nippon Koden MF-5) and P02 macro electrode (Beokmann Moder 160-C), respectively using Morawitz cannulization technique. Heart rate was measured by cardiotachometer (Nippon Koden RT-2) synchronized with systolic blood pressure of aorta."}, "coronary sinus out flow": {"tested_on": "coronary sinus out flow", "test": "Effects on coronary sinus out flow", "description": "as §1, §2"}, "aortic blood flow": {"tested_on": "aortic blood flow", "test": "Effects on aortic blood flow", "description": "as §1, §2"}}}
{"smiles": "COc1ccc(C(C#N)N2CCN(CC=Cc3ccccc3)CC2)cc1OC", "note": "(stereo not shown) [Compound D]", "values": [{"measurement": "Changes(%) of basal values, coronary sinus oxygen tension", "setting": "[1]; 2.0 mg/kg i.v., 1 min", "value": "+2.7%"}, {"measurement": "Changes(%) of basal values, coronary sinus oxygen tension", "setting": "[1]; 2.0 mg/kg i.v., 5 min", "value": "+0.5%"}, {"measurement": "Changes(%) of basal values, coronary sinus oxygen tension", "setting": "[1]; 2.0 mg/kg i.v., 10 min", "value": -1.0, "unit": "%"}, {"measurement": "Changes(%) of basal values, coronary sinus oxygen tension", "setting": "[1]; 2.0 mg/kg i.v., 20 min", "value": -0.5, "unit": "%"}, {"measurement": "Changes(%) of basal values, coronary sinus oxygen tension", "setting": "[1]; 2.0 mg/kg i.v., 30 min", "value": 0, "unit": "%"}, {"measurement": "Changes(%) of basal values, coronary sinus oxygen tension", "setting": "[1]; 2.0 mg/kg i.v., 40 min", "value": 0, "unit": "%"}, {"measurement": "Changes(%) of basal values, coronary sinus oxygen tension", "setting": "[1]; 2.0 mg/kg i.v., imm.", "value": "+6.7%"}, {"measurement": "Changes(%) of basal values, coronary sinus oxygen tension", "setting": "[1]; 6.0 mg/kg i.v., 1 min", "value": "+14.0%"}, {"measurement": "Changes(%) of basal values, coronary sinus oxygen tension", "setting": "[1]; 6.0 mg/kg i.v., 5 min", "value": "+5.8%"}, {"measurement": "Changes(%) of basal values, coronary sinus oxygen tension", "setting": "[1]; 6.0 mg/kg i.v., 10 min", "value": "+1.0%"}, {"measurement": "Changes(%) of basal values, coronary sinus oxygen tension", "setting": "[1]; 6.0 mg/kg i.v., 20 min", "value": -1.0, "unit": "%"}, {"measurement": "Changes(%) of basal values, coronary sinus oxygen tension", "setting": "[1]; 6.0 mg/kg i.v., 30 min", "value": 0, "unit": "%"}, {"measurement": "Changes(%) of basal values, coronary sinus oxygen tension", "setting": "[1]; 6.0 mg/kg i.v., 40 min", "value": 0, "unit": "%"}, {"measurement": "Changes(%) of basal values, coronary sinus oxygen tension", "setting": "[1]; 6.0 mg/kg i.v., imm.", "value": "+23.8%"}, {"measurement": "Changes(%) of basal values, coronary sinus oxygen tension", "setting": "[1]; 20.0 mg/kg i.v., 1 min", "value": "+43.8%"}, {"measurement": "Changes(%) of basal values, coronary sinus oxygen tension", "setting": "[1]; 20.0 mg/kg i.v., 5 min", "value": -21.2, "unit": "%"}, {"measurement": "Changes(%) of basal values, coronary sinus oxygen tension", "setting": "[1]; 20.0 mg/kg i.v., 10 min", "value": "+8.4%"}, {"measurement": "Changes(%) of basal values, coronary sinus oxygen tension", "setting": "[1]; 20.0 mg/kg i.v., 20 min", "value": "+3.2%"}, {"measurement": "Changes(%) of basal values, coronary sinus oxygen tension", "setting": "[1]; 20.0 mg/kg i.v., 30 min", "value": "+2.0%"}, {"measurement": "Changes(%) of basal values, coronary sinus oxygen tension", "setting": "[1]; 20.0 mg/kg i.v., 40 min", "value": "+0.2%"}, {"measurement": "Changes(%) of basal values, coronary sinus oxygen tension", "setting": "[1]; 20.0 mg/kg i.v., imm.", "value": "+60.3%"}, {"measurement": "Effects on coronary sinus oxygen tension (in words)", "setting": "[1]; i.v., anesthetized dogs", "value": "a significant increase in coronary sinus oxygen tension, effect of which was of long duration"}, {"measurement": "Changes(%) of basal values, coronary sinus out flow", "setting": "coronary sinus out flow; 2.0 mg/kg i.v., 1 min", "value": "+1.6%"}, {"measurement": "Changes(%) of basal values, coronary sinus out flow", "setting": "coronary sinus out flow; 2.0 mg/kg i.v., 5 min", "value": -3.1, "unit": "%"}, {"measurement": "Changes(%) of basal values, coronary sinus out flow", "setting": "coronary sinus out flow; 2.0 mg/kg i.v., 10 min", "value": -1.0, "unit": "%"}, {"measurement": "Changes(%) of basal values, coronary sinus out flow", "setting": "coronary sinus out flow; 2.0 mg/kg i.v., 20 min", "value": 0, "unit": "%"}, {"measurement": "Changes(%) of basal values, coronary sinus out flow", "setting": "coronary sinus out flow; 2.0 mg/kg i.v., 30 min", "value": 0, "unit": "%"}, {"measurement": "Changes(%) of basal values, coronary sinus out flow", "setting": "coronary sinus out flow; 2.0 mg/kg i.v., 40 min", "value": 0, "unit": "%"}, {"measurement": "Changes(%) of basal values, coronary sinus out flow", "setting": "coronary sinus out flow; 2.0 mg/kg i.v., imm.", "value": "+6.2%"}, {"measurement": "Changes(%) of basal values, coronary sinus out flow", "setting": "coronary sinus out flow; 6.0 mg/kg i.v., 1 min", "value": "+9.1%"}, {"measurement": "Changes(%) of basal values, coronary sinus out flow", "setting": "coronary sinus out flow; 6.0 mg/kg i.v., 5 min", "value": -0.2, "unit": "%"}, {"measurement": "Changes(%) of basal values, coronary sinus out flow", "setting": "coronary sinus out flow; 6.0 mg/kg i.v., 10 min", "value": -0.4, "unit": "%"}, {"measurement": "Changes(%) of basal values, coronary sinus out flow", "setting": "coronary sinus out flow; 6.0 mg/kg i.v., 20 min", "value": -0.2, "unit": "%"}, {"measurement": "Changes(%) of basal values, coronary sinus out flow", "setting": "coronary sinus out flow; 6.0 mg/kg i.v., 30 min", "value": 0, "unit": "%"}, {"measurement": "Changes(%) of basal values, coronary sinus out flow", "setting": "coronary sinus out flow; 6.0 mg/kg i.v., 40 min", "value": 0, "unit": "%"}, {"measurement": "Changes(%) of basal values, coronary sinus out flow", "setting": "coronary sinus out flow; 6.0 mg/kg i.v., imm.", "value": "+23.0%"}, {"measurement": "Changes(%) of basal values, coronary sinus out flow", "setting": "coronary sinus out flow; 20.0 mg/kg i.v., 1 min", "value": "+49.3%"}, {"measurement": "Changes(%) of basal values, coronary sinus out flow", "setting": "coronary sinus out flow; 20.0 mg/kg i.v., 5 min", "value": "+9.1%"}, {"measurement": "Changes(%) of basal values, coronary sinus out flow", "setting": "coronary sinus out flow; 20.0 mg/kg i.v., 10 min", "value": "+8.4%"}, {"measurement": "Changes(%) of basal values, coronary sinus out flow", "setting": "coronary sinus out flow; 20.0 mg/kg i.v., 20 min", "value": "+8.0%"}, {"measurement": "Changes(%) of basal values, coronary sinus out flow", "setting": "coronary sinus out flow; 20.0 mg/kg i.v., 30 min", "value": "+5.7%"}, {"measurement": "Changes(%) of basal values, coronary sinus out flow", "setting": "coronary sinus out flow; 20.0 mg/kg i.v., 40 min", "value": "+3.0%"}, {"measurement": "Changes(%) of basal values, coronary sinus out flow", "setting": "coronary sinus out flow; 20.0 mg/kg i.v., imm.", "value": "+66.2%"}, {"measurement": "Effects on coronary sinus out flow (in words)", "setting": "coronary sinus out flow; i.v., anesthetized dogs", "value": "a marked increasing effect on coronary sinus out flow, which was proportioned to doses thereof and of long duration"}, {"measurement": "Changes (%) of basal values, aortic blood flow", "setting": "aortic blood flow; 2.0 mg/kg i.v., 1 min", "value": "+3.3%"}, {"measurement": "Changes (%) of basal values, aortic blood flow", "setting": "aortic blood flow; 2.0 mg/kg i.v., 5 min", "value": -0.8, "unit": "%"}, {"measurement": "Changes (%) of basal values, aortic blood flow", "setting": "aortic blood flow; 2.0 mg/kg i.v., 10 min", "value": 0, "unit": "%"}, {"measurement": "Changes (%) of basal values, aortic blood flow", "setting": "aortic blood flow; 2.0 mg/kg i.v., 20 min", "value": 0, "unit": "%"}, {"measurement": "Changes (%) of basal values, aortic blood flow", "setting": "aortic blood flow; 2.0 mg/kg i.v., 30 min", "value": 0, "unit": "%"}, {"measurement": "Changes (%) of basal values, aortic blood flow", "setting": "aortic blood flow; 2.0 mg/kg i.v., 40 min", "value": 0, "unit": "%"}, {"measurement": "Changes (%) of basal values, aortic blood flow", "setting": "aortic blood flow; 2.0 mg/kg i.v., imm.", "value": "+8.3%"}, {"measurement": "Changes (%) of basal values, aortic blood flow", "setting": "aortic blood flow; 6.0 mg/kg i.v., 1 min", "value": "+3.3%"}, {"measurement": "Changes (%) of basal values, aortic blood flow", "setting": "aortic blood flow; 6.0 mg/kg i.v., 5 min", "value": -2.7, "unit": "%"}, {"measurement": "Changes (%) of basal values, aortic blood flow", "setting": "aortic blood flow; 6.0 mg/kg i.v., 10 min", "value": "+0.7%"}, {"measurement": "Changes (%) of basal values, aortic blood flow", "setting": "aortic blood flow; 6.0 mg/kg i.v., 20 min", "value": "+0.5%"}]}
